CC50 and EC50 data for ten compounds are collected here from patent publication US20230083012A1, “DIHYDROPYRIMIDINE DERIVATIVES AND USES THEREOF IN THE TREATMENT OF HBV INFECTION OR OF HBV-INDUCED DISEASES” (priority 2019, published 2023).

Molecules are shown by their SMILES.

A short description of series [1]: Cytotoxicity determination in HepG2.2.15 cells (CCK-8 cell viability). Type of series: cell-based. Conditions: human, 6 days treatment, CCK-8 assay, highest concentration 100 uM. A digest of the protocol:
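Viability measured by CCK-8 absorbance (450 nm, 630 nm reference, 2.5 h at 37° C) after six days of treatment, medium and compound renewed on day 3. Top concentration 100 uM, eight threefold dilutions in triplicate; cells plated at 5,000/well in 2% FBS medium; CC50 derived.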

A further series concerns HBV. As to the kind of experiment: Anti-HBV activity in HepG2.2.15 cells (HBV DNA in culture medium by qPCR). Type of series: cell-based. Conditions: Hepatitis B virus, HepG2.2.15, 144 h, HepG2.2.15 cells, 6 days treatment, HBV DNA in culture medium quantified by real-time PCR; read-out: EC50. In outline:
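Secreted HBV DNA was measured by real-time PCR after 6-day compound exposure of HepG2.2.15 cells (2% FBS, 37 °C, re-dosed after 3 days), giving EC50 from 8-point 1:3 series starting at 10 or 1 uM. Cytotoxicity (CC50) run separately at lower cell density, top 100 uM.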

Compound `CCOC(=O)C1=C(CN2CC(F)(F)[C@@H]3[C@H]2CN(CC(F)(F)F)N3CCC(C)(C)C(=O)O)NC(c2nccs2)=N[C@H]1c1cccc(F)c1C` (single isomer, unassigned) [Compound 92] had a 50% cytotoxic concentration (CC50) at 6 days in series [1] of 5000 nM. The EC50 with HBV turned out to be 61 nM.

On to `CCOC(=O)C1=C(CN2CC(F)(F)[C@@H]3[C@H]2CN(C)N3CCC(C)(C)C(=O)O)NC(c2nccs2)=N[C@@H]1c1ccc(F)c(F)c1C` (single isomer, unassigned) [Compound 93, 4-(4-((6-(3,4-difluoro-2-methylphenyl)-5-(ethoxycarbonyl)-2-(thiazol-2-yl)-3,6-dihydropyrimidin-4-yl)methyl)-6,6-difluoro-2-methylhexahydropyrrolo[3,2-c]pyrazol-1(2H)-yl)-2, ethylbutanoic acid], for which, in series [1], the CC50 at 6 days was 5400 nM. Besides, the EC50 with HBV came out at 12 nM.

In turn, `COC(=O)C1=C(CN2CC(F)(F)[C@@H]3[C@H]2CN(C)N3CCC(C)(C)C(=O)O)NC(c2nccs2)=N[C@H]1c1ccc(F)cc1Cl` (single isomer, unassigned) [Compound 94] showed a 50% cytotoxic concentration (CC50) at 6 days in series [1] of 25000 nM. For the same compound, the 50% effective concentration (EC50) with HBV worked out at 14 nM.

In series [1], `COC(=O)C1=C(CN2CC(F)(F)[C@@H]3[C@H]2CN(C)N3CCC(C)(C)C(=O)O)NC(c2nccs2)=N[C@H]1c1ccc(F)c(F)c1Cl` (single isomer, unassigned) [Compound 95, 4-((cis)-4-((6-(2-Chloro-3,4-difluorophenyl)-5-(methoxycarbonyl)-2-(thiazol-2-yl)-3,6-dihydropyrimidin-4-yl)methyl)-6,6-difluoro-2-methylhexahydropyrrolo[3,2-c]pyrazol-1(2H)-yl)-2,2-dimethylbutanoic acid] gave a CC50 at 6 days of 8200 nM. The EC50 in the series with HBV came out at 24 nM.

`CCOC(=O)C1=C(CN2CC(F)(F)[C@@H]3[C@H]2CN(C)N3CCC(C)(C)C(=O)O)NC(c2nccs2)=N[C@@H]1c1ccc(F)nc1C` (single isomer, unassigned) [Compound 96]: in series [1], the CC50 at 6 days was more than 100000 nM. Further, the EC50 in the series on HBV worked out at 50 nM.

`CCOC(=O)C1=C(CN2CC(F)(F)[C@@H]3[C@H]2CN(C)N3CC(C)(C)C(=O)O)NC(c2nccs2)=N[C@@H]1c1ccc(F)nc1C` (single isomer, unassigned) [Compound 97] showed a CC50 at 6 days in series [1] of more than 100000 nM. Moreover, the concentration for a half-maximal effect (EC50) with HBV is 77 nM.

For the compound `CCOC(=O)C1=C(CN2CC(F)(F)[C@@H]3[C@H]2CN(C)N3CC2CC(C)(C(=O)O)C2)NC(c2nccs2)=N[C@H]1c1cccc(F)c1C` (single isomer, unassigned) [Compound 98], the half-maximal cytotoxic concentration (CC50) at 6 days in series [1] is more than 6200 nM. For the same compound, in the series with HBV, the concentration giving a half-maximal response (EC50) stood at 14 nM.

Consider `CCOC(=O)C1=C(CN2CC(F)(F)[C@@H]3[C@H]2CN(C)N3CCOC(C)(C)C(=O)O)NC(c2nccs2)=N[C@H]1c1cccc(F)c1C` (single isomer, unassigned) [Compound 99], for which the CC50 at 6 days in series [1] turned out to be 25000 nM. In addition, the concentration for a half-maximal effect (EC50) with HBV was determined as 155 nM.

Compound `[2H]C([2H])([2H])N1C[C@@H]2[C@H](N1CCC(C)(C)C(=O)O)C(F)(F)CN2CC1=C(C(=O)OCC)[C@H](c2cccc(F)c2C)N=C(c2nccs2)N1` (single isomer, unassigned) [Compound 100] yielded a CC50 at 6 days in series [1] of 12000 nM. Moreover, in the series on HBV, the EC50 was determined as 11 nM.

Take `COC(=O)C1=C(CN2CC(F)(F)[C@@H]3[C@H]2CN(C)N3CCC(C)(C)C(=O)O)NC(c2nccs2)=N[C@H]1c1ccc(F)c(F)c1C` (single isomer, unassigned) [Compound 101, 4-((cis)-4-((6-(3,4-Difluoro-2-methylphenyl)-5-(methoxycarbonyl)-2-(thiazol-2-yl)-3,6-dihydropyrimidin-4-yl)methyl)-6,6-difluoro-2-methylhexahydropyrrolo[3,2-c]pyrazol-1(2H)-yl)-2,2-dimethylbutanoic acid]: the 50% cytotoxic concentration (CC50) at 6 days in series [1] is more than 3100 nM. The EC50 in the series on HBV was determined as 25 nM.
